Where two headings read alike, the source gives them in different places.
Assays:
[1] = log P by HPLC on reversed-phase columns (EEC Directive 79/831 Annex V.A8); format: physicochemical
[2] = test system: caterpillars of the armyworm (Spodoptera frugiperda); experiment: Spodoptera frugiperda test (SPODFR spray treatment); format: in vivo; details: Spodoptera frugiperda, 168 h, read-out: activity in % (caterpillars killed)
[3] = test system: larvae of the mustard beetle (Phaedon cochleariae); experiment: Phaedon test (PHAECO spray treatment); details: Phaedon cochleariae, 168 h, read-out: activity in % (beetle larvae killed)
[4] = reversed-phase C18 HPLC column, pH 2.7, HPLC reversed-phase C18, acidic range pH 2.7 (HCOOH), only or first value of the cell, read-out: log P
[5] = application rate 100 g/ha, after 7 days

Row | chromatographic logP [1, 4] | SMILES | chromatographic logP ([1]; pH 2.7, log P) | pest or weed control at 100 g/ha [2] [%] | pest or weed control at 100 g/ha [3] [%] | also measured
1 |  | O=C(NC1COC1)c1cc(Cl)cc(Cl)c1NC(=O)c1cc(Cn2nnc(C(F)(F)F)n2)nn1-c1ncccc1Cl [Example 5] | 2.79 | 100 | 100 | 
2 |  | Cc1cc(Cl)cc(C(=O)NC2COC2)c1NC(=O)c1cc(Cn2nc(C(F)(F)F)nc2C(F)(F)F)nn1-c1ncccc1Cl [Example 8] | 3.24 | 100 | 100 | 
3 |  | Cc1cc(Cl)cc(C(=O)NC2COC2)c1NC(=O)c1cc(Cn2nnc(C(F)(F)C(F)(F)F)n2)nn1-c1ncccc1Cl [Example 9] | 3.21 | 100 | 100 | 
4 |  | Cc1cc(C#N)cc(C(=O)NC2CSC2)c1NC(=O)c1cc(Cn2nnc(C(F)(F)C(F)(F)F)n2)nn1-c1ncccc1Cl [Example 11] | 3.43 | 100 | 100 | 
5 |  | Cc1cc(C#N)cc(C(=O)NC2COC2)c1NC(=O)c1cc(Cn2nnnc2C(F)(F)F)nn1-c1ncccc1Cl [Example 12] | 2.17 | 100 | 100 | 
6 |  | Cc1cc(C#N)cc(C(=O)NC2COC2)c1NC(=O)c1cc(Cn2nc(C(F)(F)F)nc2C(F)(F)F)nn1-c1ncccc1Cl [Example 13] | 2.95 | 100 | 100 | 
7 |  | Cc1cc(Cl)cc(C(=O)NC2COC2)c1NC(=O)c1cc(Cn2nnc(C(F)F)n2)nn1-c1ncccc1Cl [Example 16] | 2.37 | 100 |  | 
8 |  | Cc1cc(C#N)cc(C(=O)NC2COC2)c1NC(=O)c1cc(Cn2nnc(C(F)F)n2)nn1-c1ncccc1Cl [Example 17] | 2.05 | 83 |  | 
9 |  | O=C(NC1COC1)c1cc(Cl)cc(Cl)c1NC(=O)c1cc(Cn2nnc(C(F)F)n2)nn1-c1ncccc1Cl [Example 19] | 2.37 | 100 |  | 
10 |  | Cc1cc(Cl)cc(C(=O)NC2=NCCS2)c1NC(=O)c1cc(Cn2nnc(C(F)(F)C(F)(F)F)n2)nn1-c1ncccc1Cl [Example 47] | 3.9 | 100 | 100 | log P (second value after the slash) ([1]; pH 2.7): 3.58
11 | 2.75 | Cc1cc(C#N)cc(C(=O)NC2CCS(=O)(=O)C2)c1NC(=O)c1cc(Cn2nnc(C(F)(F)F)n2)nn1-c1c(F)cccc1F (centres unmarked) [Example 52] |  |  | 100 | pest or weed control at 100 g/ha [2, 5]: 100%
12 | 2.64 | Cc1cc(C#N)cc(C(=O)NC2CS(=O)(=O)CC2O)c1NC(=O)c1cc(Cn2nnc(C(F)(F)F)n2)nn1-c1ccccc1Cl (centres unmarked) [Example 53] |  |  |  | 
13 |  | Cc1cc(Cl)cc(C(=O)NC2CCN(C)CC2)c1NC(=O)c1cc(Cn2nnc(C(F)(F)F)n2)nn1-c1ncccc1Cl [Example 55] | 4.14 | 100 |  | 
14 |  | Cc1cc(Cl)cc(C(=O)NC2CCSCC2)c1NC(=O)c1cc(Cn2nnc(C(F)(F)F)n2)nn1-c1ncccc1Cl [Example 56] | 3.58 | 100 | 100 | 
15 | 1.79 | Cc1cc(C#N)cc(C(=O)NC2CCN(C)CC2)c1NC(=O)c1cc(Cn2nnc(C(F)(F)F)n2)nn1-c1ccccc1Cl [Example 59] |  |  |  | 
16 |  | Cc1cc(Cl)cc(C(=O)NCC2CCCO2)c1NC(=O)c1cc(Cn2nnc(C(F)(F)F)n2)nn1-c1ncccc1Cl (centres unmarked) [Example 60] | 3.25 | 100 |  | 
17 |  | Cc1cc(Cl)cc(C(=O)NCC2(C)CCCO2)c1NC(=O)c1cc(Cn2nnc(C(F)(F)F)n2)nn1-c1ncccc1Cl (centres unmarked) [Example 61] | 3.48 | 100 | 100 | 
18 | 4.02 | Cc1cc(C#N)cc(C(=O)NCc2cccc(S(F)(F)(F)(F)F)c2)c1NC(=O)c1cc(Cn2nnc(C(F)(F)F)n2)nn1-c1ncccc1Cl [Example 63] |  |  | 100 | pest or weed control at 100 g/ha [2, 5]: 100%
19 | 4.01 | Cc1cc(C#N)cc(C(=O)NCc2ccc(S(F)(F)(F)(F)F)cc2)c1NC(=O)c1cc(Cn2nnc(C(F)(F)F)n2)nn1-c1ncccc1Cl [Example 64] |  |  | 100 | pest or weed control at 100 g/ha [2, 5]: 100%
20 | 3.74 | Cc1ccc(CNC(=O)c2cc(C#N)cc(C)c2NC(=O)c2cc(Cn3nnc(C(F)(F)F)n3)nn2-c2ccccc2Cl)cc1 [Example 78] |  |  |  | pest or weed control at 100 g/ha [2, 5]: 100%
21 |  | Cc1cc(Cl)cc(C(=O)NCc2ccccc2)c1NC(=O)c1cc(Cn2nnc(CCC(F)(F)F)n2)nn1-c1ncccc1Cl [Example 79] | 3.56 |  |  | 
22 |  | Cc1cc(I)cc(C(=O)NCc2ccccc2)c1NC(=O)c1cc(Cn2nnc(CCC(F)(F)F)n2)nn1-c1ncccc1Cl [Example 80] | 3.78 |  |  | 
23 |  | Cc1ccc(CNC(=O)c2cc(Cl)cc(C)c2NC(=O)c2cc(Cn3nnc(C(F)(F)F)n3)nn2-c2ncccc2Cl)cc1 [Example 90] | 4.08 | 100 |  | 
24 | 3.21 | Cc1cc(C#N)cc(C(=O)NCc2ccccc2)c1NC(=O)c1cc(Cn2nnc(CCC(F)(F)F)n2)nn1-c1ncccc1Cl [Example 130] |  |  | 100 | 

Row | chromatographic logP [1, 4] | SMILES | chromatographic logP ([1]; pH 2.7, log P) | pest or weed control at 100 g/ha [2] [%] | pest or weed control at 100 g/ha [3] [%] | also measured
25 |  | Cc1cc(Cl)cc(C(=O)NCc2ccccc2)c1NC(=O)c1cc(Cn2nnnc2CCC(F)(F)F)nn1-c1ncccc1Cl [Example 131] | 3.2 |  |  | 
26 | 2.84 | Cc1cc(C#N)cc(C(=O)NCc2ccccc2)c1NC(=O)c1cc(Cn2nnnc2CCC(F)(F)F)nn1-c1ncccc1Cl [Example 132] |  |  |  | 
27 |  | Cc1cc(I)cc(C(=O)NCc2ccccc2)c1NC(=O)c1cc(Cn2nnnc2CCC(F)(F)F)nn1-c1ncccc1Cl [Example 133] | 3.45 |  |  | 
28 | 4.75 | Cc1cc(I)cc(C(=O)NCc2ccccc2)c1NC(=O)c1cc(Cn2nc(C(F)(F)F)c(C(F)(F)F)n2)nn1-c1ncccc1Cl [Example 135] |  |  |  | 
29 | 4.66 | Cc1cc(Cl)cc(C(=O)NC(C)c2cc(Cl)cc(Cl)c2)c1NC(=O)c1cc(Cn2nnc(C(F)(F)F)n2)nn1-c1ncccc1Cl (centres unmarked) [Example 145] |  |  |  | 
30 | 4.36 | Cc1cc(I)cc(C(=O)NCc2cccc(OC(F)(F)F)c2)c1NC(=O)c1cc(Cn2nnc(C(F)(F)C(F)(F)F)n2)nn1-c1ncccc1Cl [Example 147] |  |  | 100 | 
31 | 3.37 | Cc1cc(C#N)cc(C(=O)NCc2ccccc2OC(F)(F)F)c1NC(=O)c1cc(Cn2nnc(C(F)F)n2)nn1-c1ncccc1Cl [Example 162] |  |  | 100 | 
32 | 3.42 | Cc1cc(Cl)cc(C(=O)NCc2cccc(OC(F)F)c2)c1NC(=O)c1cc(Cn2nnc(C(F)F)n2)nn1-c1ncccc1Cl [Example 176] |  |  |  | 
33 | 3.07 | Cc1cc(C#N)cc(C(=O)NCc2ccccc2OC(F)F)c1NC(=O)c1cc(Cn2nnc(C(F)F)n2)nn1-c1ncccc1Cl [Example 177] |  |  |  | 
34 | 3.55 | Cc1cc(C#N)cc(C(=O)NCc2ccccc2OC(F)F)c1NC(=O)c1cc(Cn2nnc(C(F)(F)F)n2)nn1-c1ncccc1Cl [Example 179] |  |  |  | 
35 | 4.46 | Cc1cc(C#N)cc(C(=O)NCc2ccc(OC(F)(F)F)cc2)c1NC(=O)c1cc(Cn2nnc(C(F)(F)F)n2)nn1-c1c(Cl)cccc1Cl [Example 181] |  |  |  | pest or weed control at 100 g/ha [2, 5]: 100%
36 |  | Cc1ccc(Cl)c(C(=O)NCc2ccc(Cl)cc2)c1NC(=O)c1cc(Cn2nnc(C(F)(F)F)n2)nn1-c1ncccc1Cl [Example 198] | 3.68 |  |  | 
37 | 3.92 | Cc1ccc(Cl)c(C(=O)NCc2ccccc2OC(F)(F)F)c1NC(=O)c1cc(Cn2nnc(C(F)(F)F)n2)nn1-c1ncccc1Cl [Example 199] |  |  |  | 
38 | 3.94 | Cc1ccc(Cl)c(C(=O)NCc2cccc(OC(F)(F)F)c2)c1NC(=O)c1cc(Cn2nnc(C(F)(F)F)n2)nn1-c1ncccc1Cl [Example 200] |  |  |  | 
39 | 3.93 | Cc1ccc(Cl)c(C(=O)NCc2ccc(OC(F)(F)F)cc2)c1NC(=O)c1cc(Cn2nnc(C(F)(F)F)n2)nn1-c1ncccc1Cl [Example 201] |  |  |  | 
40 | 4.1 | O=C(NCc1ccccc1Cl)c1cc2ccccc2c(Cl)c1NC(=O)c1cc(Cn2nnc(C(F)(F)F)n2)nn1-c1ncccc1Cl [Example 218] |  |  |  | 
41 | 4.13 | O=C(NCc1cccc(Cl)c1)c1cc2ccccc2c(Cl)c1NC(=O)c1cc(Cn2nnc(C(F)(F)F)n2)nn1-c1ncccc1Cl [Example 219] |  |  |  | 
42 | 4.11 | O=C(NCc1ccc(Cl)cc1)c1cc2ccccc2c(Cl)c1NC(=O)c1cc(Cn2nnc(C(F)(F)F)n2)nn1-c1ncccc1Cl [Example 220] |  |  |  | 
43 | 4.36 | O=C(NCc1ccccc1OC(F)(F)F)c1cc2ccccc2c(Cl)c1NC(=O)c1cc(Cn2nnc(C(F)(F)F)n2)nn1-c1ncccc1Cl [Example 221] |  |  |  | pest or weed control at 100 g/ha [2, 5]: 100%
44 | 4.38 | O=C(NCc1cccc(OC(F)(F)F)c1)c1cc2ccccc2c(Cl)c1NC(=O)c1cc(Cn2nnc(C(F)(F)F)n2)nn1-c1ncccc1Cl [Example 222] |  |  |  | pest or weed control at 100 g/ha [2, 5]: 100%
45 | 4.36 | O=C(NCc1ccc(OC(F)(F)F)cc1)c1cc2ccccc2c(Cl)c1NC(=O)c1cc(Cn2nnc(C(F)(F)F)n2)nn1-c1ncccc1Cl [Example 223] |  |  |  | pest or weed control at 100 g/ha [2, 5]: 100%
46 |  | Cc1ccc(CNC(=O)c2cc(Cl)cc(C)c2NC(=O)c2cc(Cn3nnc(C(F)(F)F)n3)nn2-c2ncccc2Cl)nc1C [Example 227] | 2.1 | 100 |  | 
47 | 2.94 | CCCc1cccc(CNC(=O)c2cc(Cl)cc(C)c2NC(=O)c2cc(Cn3nnc(C(F)(F)F)n3)nn2-c2ncccc2Cl)n1 [Example 229] |  |  | 100 | 
48 | 3.94 | Cc1cc(Cl)cc(C(=O)NCc2cc3ccccc3nc2Cl)c1NC(=O)c1cc(Cn2nnc(C(F)(F)F)n2)nn1-c1ncccc1Cl [Example 237] |  |  |  | 

— patent US8791143B2, “Anthranilic diamide derivatives having cyclic side-chains” (priority 2010, dated 2014)
